{"source": "paper PMC9095528", "about": "“Spectrofluorimetric Approach for Quantification of Cyclizine in the Presence of its Toxic Impurities in Human Plasma; in silico Study and ADMET Calculations” (Journal of Fluorescence, 2022)", "key": {"[1]": {"assay": "Pharmacokinetics of CYZ in human plasma after I.V administration (non-compartmental analysis)", "type": "in vivo", "protocol": "One mL of CYZ was intravenously injected into three human volunteers in good health and Using a calibrated heparinized tube, a 5 mL sample of human blood was drawn from each volunteer after 0.5, 1, 2, 4, 8 hrs. All the collected samples were centrifuged for 20 min at 4000 rpm. 1 mL of each sample was quantitatively poured into a centrifuge tube, and 1 mL acetonitrile was applied to precipitate plasma proteins, until centrifugation at 4000 rpm for 20 minutes. The clear plasma supernatant was transferred to Eppendorf tubes and held at […] until the rest of the procedure was completed.\nNon-compartmental analysis (NCA) was used to measure pharmacokinetic parameters such as half-life, C max, T max, elimination rate constant, clearance, apparent volume of distribution, and area under the curve using Thermo Kinetica software (version 5.0) and PK solver software after taking human plasma samples from previously injected volunteers. In deciding the proper usage of the drug and in forecasting the impact of pharmacokinetic drug interactions, the results of pharmacokinetic research have been helpful."}, "[2]": {"assay": "Stability of CYZ in plasma (short-term room temperature and freeze-thaw)", "type": "in vitro ADME, human", "conditions": "rat plasma", "protocol": "To cover the anticipated sample treatment and storage environments during the processing of samples, the stability of CYZ in human plasma was investigated as short‐term stability at room temperature and freeze–thaw stability. In all stability tests, three replicates of three concentrations at low, medium, and high levels were treated and compared to recently prepared QC samples."}, "[3]": {"conditions": "intravenous, I.V administration of Emetrex 50 mg"}}, "data": [{"smiles": "CN1CCN(C(c2ccccc2)c2ccccc2)CC1", "note": "[CYZ, 1-benzhydryl-4-methylpiperazine]", "values": [{"measurement": "Elimination rate constant (K)", "setting": "[1]; I.V administration of Emetrex 50 mg", "result": "0.274 ± 0.10"}, {"measurement": "Tmax", "setting": "[1]; intravenous, 50 mg, after I.V injection", "result": 2, "unit": "h"}, {"measurement": "AUC(0-inf)", "setting": "[1]; [3]", "result": "213 ± 7.21", "unit": "µg·h/mL"}, {"measurement": "AUC(0-t)", "setting": "[1]; [3]", "result": "22.3 ± 1.22", "unit": "µg·h/mL"}, {"measurement": "Cmax", "setting": "[1]; [3]", "result": "72.8 ± 1.56", "unit": "ng/mL"}, {"measurement": "half-life", "setting": "[1]; [3]", "result": "2.53 ± 0.43", "unit": "h"}, {"measurement": "Vd", "setting": "[1]; intravenous, I.V administration of Emetrex 50 mg, read-out: Volume of distribution (Vd)", "result": "0.695 ± 0.23", "unit": "L"}, {"measurement": "remaining at 6 h, 30 ng/mL", "setting": "[2]; 30 ng/mL, room temperature for 6 h", "result": "97 ± 1.13", "unit": "%"}, {"measurement": "remaining at 30 ng/mL", "setting": "[2]; 30 ng/mL, three freeze thaw cycle", "result": "97.1 ± 1.32", "unit": "%"}, {"measurement": "remaining at 6 h, 400 ng/mL", "setting": "[2]; 400 ng/mL, room temperature for 6 h", "result": "98.03 ± 0.98", "unit": "%"}, {"measurement": "remaining at 400 ng/mL", "setting": "[2]; 400 ng/mL, three freeze thaw cycle", "result": "96.5 ± 0.97", "unit": "%"}, {"measurement": "remaining at 6 h, 800 ng/mL", "setting": "[2]; 800 ng/mL, room temperature for 6 h", "result": "96.1 ± 1.88", "unit": "%"}, {"measurement": "remaining at 800 ng/mL", "setting": "[2]; 800 ng/mL, three freeze thaw cycle", "result": "97.2 ± 1.76", "unit": "%"}]}]}
